{"source": "patent US20260216238A1", "about": "“TETRATHIOMOLYBDIC ACID FOR USE IN TREATING COPPER METABOLISM-ASSOCIATED DISEASES OR DISORDERS (WILSON DISEASE)” (Alexion Pharmaceuticals, Inc., priority 2023, published 2026)", "system": "patients with Wilson disease (WD)", "test": "UWDRS Part III total score, functional subscale and individual items (neurological examination)", "type": "in vivo, human", "description": "The UWDRS scoring system was developed specifically for the motor and movement disorders associated with chronic copper neurotoxicity in WD. Some individual items/subscales of the UWDRS Part III (arising from a chair, gait, handwriting, and speech) in addition to the UWDRS Parts I, II, and III overall, were assessed to further define the range of burdensome signs and symptoms of WD, so as to further understand the assessment of treatment effects on patients with WD. The UWDRS scores for consciousness (Part I) and abnormal neurologic examination findings (Part III) will be determined by a trained neurologist rater who is blinded to study treatment randomization. These scores were used to provide a rigorous dataset for evaluating changes from baseline.\nUnified Wilson Disease Rating Scale (Parts I, II, and III): The UWDRS is a clinical rating scale designed to evaluate the neurological manifestations of WD that generally can be divided into 3 movement disorder syndromes: dystonic, ataxic, and Parkinsonian syndrome. The UWDRS comprises 3 parts: UWDRS Part I (level of consciousness, item 1), UWDRS Part II (a patient-reported review of daily activity items [disability], items 2 to 11), and UWDRS Part III (a detailed neurological examination, items 12 to 34).\nThe UWDRS Part I and Part III were assessed by a neurologist who is blinded to the treatment randomization, while UWDRS Part II may be reported to a non-blinded member of the study team by the patient, family member, or caregiver. The UWDRS has not been formally evaluated in adolescents. However, the components of Part I (level of consciousness), Part II (patient or caregiver-reported disability) and Part III (neurologic examination findings) were not fundamentally different between adults and adolescents. Patients aged 12 years and older were expected to be able to comply with UWDRS assessments.\nPooled results from all such participants will be integrated together into one timeline to allow analyses of changes in UWDRS, long-term copper control, and long-term safety laboratory data.\nEndpoints (directly measured non-ceruloplasmin-bound copper [dNCC], UWDRS III (rater blinded) total and individual item scores, Clinical Global Impression-Improvement [CGI-I]) were evaluated at baseline (BL) and Week 48 (W48). Normalization (score decrease to 0), improvement (≥1 point decrease), stability (no change), or worsening (≥1 point increase) of total and individual UWDRS III item scores were evaluated at W48.", "key": {"[1]": {"details": "Week 144, Study 301 TTM long term set"}, "[2]": {"details": "difference of changes Wk 48 - BL"}}, "data": [{"substance": "bis-choline tetrathiomolybdate [TTM]", "values": [{"measurement": "UWDRS Part III-handwriting (0-4) change from baseline, Mean", "setting": "[1]", "result": "−0.5"}, {"measurement": "UWDRS Part III-speech (0-4) change from baseline, LSM", "setting": "[1]", "result": "−0.3"}, {"measurement": "UWDRS Part III-speech (0-4) change from baseline, Mean", "setting": "[1]", "result": "−0.2"}, {"measurement": "UWDRS symptom: Arising from chair", "setting": "Wk 48", "result": 86}, {"measurement": "UWDRS symptom: Arm and hand Dystonia", "setting": "Wk 48", "result": 67}, {"measurement": "UWDRS symptom: Cervical Dystonia", "setting": "Wk 48", "result": 82}, {"measurement": "UWDRS symptom: Chorea", "setting": "Wk 48", "result": 91}, {"measurement": "UWDRS symptom: Facial Expression", "setting": "Wk 48", "result": 58}, {"measurement": "UWDRS symptom: Finger Taps", "setting": "Wk 48", "result": 59}, {"measurement": "UWDRS symptom: Finger to Nose", "setting": "Wk 48", "result": 76}, {"measurement": "UWDRS symptom: Gait", "setting": "Wk 48", "result": 63}, {"measurement": "UWDRS symptom: Handwriting", "setting": "Wk 48", "result": 71}, {"measurement": "UWDRS symptom: Head Tremor", "setting": "Wk 48", "result": 89}, {"measurement": "UWDRS symptom: Involuntary Crying", "setting": "Wk 48", "result": 99}, {"measurement": "UWDRS symptom: Jaw Tremor", "setting": "Wk 48", "result": 99}, {"measurement": "UWDRS symptom: Leg Ability", "setting": "Wk 48", "result": 66}, {"measurement": "UWDRS symptom: Oculomotor", "setting": "Wk 48", "result": 87}, {"measurement": "UWDRS symptom: Postural Arm Tremor", "setting": "Wk 48", "result": 58}, {"measurement": "UWDRS symptom: Postural Leg Tremor", "setting": "Wk 48", "result": 73}, {"measurement": "UWDRS symptom: Posture", "setting": "Wk 48", "result": 71}, {"measurement": "UWDRS symptom: Pyramidal Signs", "setting": "Wk 48", "result": 87}, {"measurement": "UWDRS symptom: RAM of Hands", "setting": "Wk 48", "result": 62}, {"measurement": "UWDRS symptom: Rigidity", "setting": "Wk 48", "result": 72}, {"measurement": "UWDRS symptom: Speech", "setting": "Wk 48", "result": 51}, {"measurement": "UWDRS symptom: Stereotyped Actions", "setting": "Wk 48", "result": 89}, {"measurement": "UWDRS symptom: Tremor at rest", "setting": "Wk 48", "result": 76}, {"measurement": "UWDRS symptom: Wing-beating tremor", "setting": "Wk 48", "result": 67}, {"measurement": "UWDRS symptom: Arising from chair, Change (Wk 48 - BL)", "setting": "Wk 48 - BL", "result": 1}, {"measurement": "UWDRS symptom: Arm and hand Dystonia, Change (Wk 48 - BL)", "setting": "Wk 48 - BL", "result": 3}, {"measurement": "UWDRS symptom: Cervical Dystonia, Change (Wk 48 - BL)", "setting": "Wk 48 - BL", "result": 8}, {"measurement": "UWDRS symptom: Chorea, Change (Wk 48 - BL)", "setting": "Wk 48 - BL", "result": 1}, {"measurement": "UWDRS symptom: Facial Expression, Change (Wk 48 - BL)", "setting": "Wk 48 - BL", "result": 1}, {"measurement": "UWDRS symptom: Finger Taps, Change (Wk 48 - BL)", "setting": "Wk 48 - BL", "result": 15}, {"measurement": "UWDRS symptom: Finger to Nose, Change (Wk 48 - BL)", "setting": "Wk 48 - BL", "result": 9}, {"measurement": "UWDRS symptom: Gait, Change (Wk 48 - BL)", "setting": "Wk 48 - BL", "result": 4}, {"measurement": "UWDRS symptom: Handwriting, Change (Wk 48 - BL)", "setting": "Wk 48 - BL", "result": 16}, {"measurement": "UWDRS symptom: Head Tremor, Change (Wk 48 - BL)", "setting": "Wk 48 - BL", "result": 5}, {"measurement": "UWDRS symptom: Involuntary Crying, Change (Wk 48 - BL)", "setting": "Wk 48 - BL", "result": 0}, {"measurement": "UWDRS symptom: Jaw Tremor, Change (Wk 48 - BL)", "setting": "Wk 48 - BL", "result": 0}, {"measurement": "UWDRS symptom: Leg Ability, Change (Wk 48 - BL)", "setting": "Wk 48 - BL", "result": 4}, {"measurement": "UWDRS symptom: Oculomotor, Change (Wk 48 - BL)", "setting": "Wk 48 - BL", "result": "−2"}, {"measurement": "UWDRS symptom: Postural Arm Tremor, Change (Wk 48 - BL)", "setting": "Wk 48 - BL", "result": 9}, {"measurement": "UWDRS symptom: Postural Leg Tremor, Change (Wk 48 - BL)", "setting": "Wk 48 - BL", "result": 5}, {"measurement": "UWDRS symptom: Posture, Change (Wk 48 - BL)", "setting": "Wk 48 - BL", "result": 4}, {"measurement": "UWDRS symptom: Pyramidal Signs, Change (Wk 48 - BL)", "setting": "Wk 48 - BL", "result": "−2"}, {"measurement": "UWDRS symptom: RAM of Hands, Change (Wk 48 - BL)", "setting": "Wk 48 - BL", "result": 14}, {"measurement": "UWDRS symptom: Rigidity, Change (Wk 48 - BL)", "setting": "Wk 48 - BL", "result": 14}, {"measurement": "UWDRS symptom: Speech, Change (Wk 48 - BL)", "setting": "Wk 48 - BL", "result": 7}, {"measurement": "UWDRS symptom: Stereotyped Actions, Change (Wk 48 - BL)", "setting": "Wk 48 - BL", "result": "−4"}, {"measurement": "UWDRS symptom: Tremor at rest, Change (Wk 48 - BL)", "setting": "Wk 48 - BL", "result": 1}, {"measurement": "UWDRS symptom: Wing-beating tremor, Change (Wk 48 - BL)", "setting": "Wk 48 - BL", "result": 3}, {"measurement": "UWDRS symptom: Arising from chair, Difference (TTM − SoC)", "setting": "[2]", "result": 4}, {"measurement": "UWDRS symptom: Arm and hand Dystonia, Difference (TTM − SoC)", "setting": "[2]", "result": 3}, {"measurement": "UWDRS symptom: Cervical Dystonia, Difference (TTM − SoC)", "setting": "[2]", "result": 5}, {"measurement": "UWDRS symptom: Chorea, Difference (TTM − SoC)", "setting": "[2]", "result": 6}, {"measurement": "UWDRS symptom: Facial Expression, Difference (TTM − SoC)", "setting": "[2]", "result": 4}, {"measurement": "UWDRS symptom: Finger Taps, Difference (TTM − SoC)", "setting": "[2]", "result": 20}, {"measurement": "UWDRS symptom: Finger to Nose, Difference (TTM − SoC)", "setting": "[2]", "result": 6}, {"measurement": "UWDRS symptom: Gait, Difference (TTM − SoC)", "setting": "[2]", "result": 2}, {"measurement": "UWDRS symptom: Handwriting, Difference (TTM − SoC)", "setting": "[2]", "result": 13}, {"measurement": "UWDRS symptom: Head Tremor, Difference (TTM − SoC)", "setting": "[2]", "result": 9}, {"measurement": "UWDRS symptom: Involuntary Crying, Difference (TTM − SoC)", "setting": "[2]", "result": 3}, {"measurement": "UWDRS symptom: Jaw Tremor, Difference (TTM − SoC)", "setting": "[2]", "result": 0}, {"measurement": "UWDRS symptom: Leg Ability, Difference (TTM − SoC)", "setting": "[2]", "result": 11}, {"measurement": "UWDRS symptom: Oculomotor, Difference (TTM − SoC)", "setting": "[2]", "result": 9}, {"measurement": "UWDRS symptom: Postural Arm Tremor, Difference (TTM − SoC)", "setting": "[2]", "result": 8}, {"measurement": "UWDRS symptom: Postural Leg Tremor, Difference (TTM − SoC)", "setting": "[2]", "result": 9}, {"measurement": "UWDRS symptom: Posture, Difference (TTM − SoC)", "setting": "[2]", "result": 1}, {"measurement": "UWDRS symptom: Pyramidal Signs, Difference (TTM − SoC)", "setting": "[2]", "result": 4}, {"measurement": "UWDRS symptom: RAM of Hands, Difference (TTM − SoC)", "setting": "[2]", "result": 31}, {"measurement": "UWDRS symptom: Rigidity, Difference (TTM − SoC)", "setting": "[2]", "result": 5}, {"measurement": "UWDRS symptom: Speech, Difference (TTM − SoC)", "setting": "[2]", "result": 0}, {"measurement": "UWDRS symptom: Stereotyped Actions, Difference (TTM − SoC)", "setting": "[2]", "result": 1}, {"measurement": "UWDRS symptom: Tremor at rest, Difference (TTM − SoC)", "setting": "[2]", "result": 4}, {"measurement": "UWDRS symptom: Wing-beating tremor, Difference (TTM − SoC)", "setting": "[2]", "result": 9}]}]}
